Results reported in patent US4725591A, “β-lactamase inhibitory composition” (Takeda Chemical Industries, Ltd., priority 1980, dated 1988).

Legend:
[1] = target: T1, β-lactamase produced by Enterobacter cloacae IFO 12937 (Enterobacter cloacae, UniProt P05364); test: Inhibitor concentration required to inhibit β-lactamase (cephalosporinase) activity by 50%, micro-iodometric method; format: biochemical; details: Enterobacter cloacae IFO 12937 cephalosporinase; 0.05M phosphate buffer pH 7, 30° C., 10 minutes preincubation; cephalothin or ampicillin 0.1 mM; read-out: I50 (converted)
T1 construct: The β-lactamase produced by Enterobacter cloacae IFO 12937; endogenous in cells; host or cells: Enterobacter cloacae IFO 12937
T1 sequence (P05364 21-381): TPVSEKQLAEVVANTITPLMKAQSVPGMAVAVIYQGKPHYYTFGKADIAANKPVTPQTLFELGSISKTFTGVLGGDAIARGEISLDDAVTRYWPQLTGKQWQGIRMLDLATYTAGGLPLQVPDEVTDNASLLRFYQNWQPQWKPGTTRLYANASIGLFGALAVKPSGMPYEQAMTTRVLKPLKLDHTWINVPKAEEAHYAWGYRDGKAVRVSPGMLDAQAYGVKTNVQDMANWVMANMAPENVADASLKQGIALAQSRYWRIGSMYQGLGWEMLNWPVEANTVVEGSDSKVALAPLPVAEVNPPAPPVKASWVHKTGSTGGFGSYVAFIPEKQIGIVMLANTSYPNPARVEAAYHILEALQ
Description: (§1) Determination of the inhibitor concentration required to inhibit the enzyme activity by 50%
(§2) The β-lactamase produced by Enterobacter cloacae IFO 12937 is used as a typical example of cephalosporinase, and that produced by Staphylococcus aureus 1840 as typical example of penicillinase. The β-lactamase in incubated is 0.05M phosphate buffer (pH 7) with an appropriate dilution of an inhibitor preparation at 30° C. for 10 minutes. Cephalothin or ampicillin is then added in an amount sufficient to produce a final concentration of 0.1 mM, and the enzymatic reaction is allowed to proceed for 10 minutes. The enzyme activity is determined by the micro-iodometric method [Journal of general Microbiology, vol. 33, page 121 (1963)]. Hereinafter, the inhibitor concentration required to inhibit the enzyme activity by 50% is expressed as I50. The I50 values for Enterobacter cloaceae are shown in Table 1, and the I50 values for Staphylococcus aureus in Table 2.

[2] = target: T2, β-lactamase produced by Staphylococcus aureus 1840 (Staphylococcus aureus, UniProt P00807); test: Inhibitor concentration required to inhibit β-lactamase (penicillinase) activity by 50%, micro-iodometric method; format: biochemical; details: Staphylococcus aureus 1840 penicillinase; 0.05M phosphate buffer pH 7, 30° C., 10 minutes preincubation; cephalothin or ampicillin 0.1 mM; read-out: I50 (converted)
T2 construct: endogenous in cells; host or cells: Staphylococcus aureus 1840
Description: as §1, §2

[3] = test system: Citrobacter freundii GN 1706; test: Synergy with Cefotiam, agar dilution MIC; format: cell-based; details: Table 4, 1 μg/ml test compound in agar, inoculum 10^8 per ml, 18 hours
Description: (§3) The inoculum concentration is 10^8 per ml, and the medium is prepared by using Trypticase® soy agar (Becton Dickinson & Company, USA).

[4] = test system: Proteus vulgaris GN 5297; test: Synergy with Cefotiam, agar dilution MIC; format: cell-based; details: Table 4, 1 μg/ml test compound in agar, inoculum 10^8 per ml, 18 hours
Description: as §3

[5] = test system: Proteus morganii TN 387; test: Synergy with Cefotiam, agar dilution MIC; format: cell-based; details: Table 4, 1 μg/ml test compound in agar, inoculum 10^8 per ml, 18 hours
Description: as §3

[6] = test system: Citrobacter freundii TN 512; test: Synergy with Cefotiam, agar dilution MIC; format: cell-based; details: Table 4, 1 μg/ml test compound in agar, inoculum 10^8 per ml, 18 hours
Description: as §3

[7] = test system: Enterobacter cloacae IFO 12937; test: Synergy with Cefotiam, agar dilution MIC; format: cell-based; details: Table 4, 1 μg/ml test compound in agar, inoculum 10^8 per ml, 18 hours
Description: as §3

| IC50 [1] [nM] | SMILES | further results |
| --- | --- | --- |
| 9460 | O=C(NC1CN(S(=O)(=O)O)C1=O)C(OS(=O)(=O)O)c1ccccc1 (stereo not shown) [Compound 15] | – |
| 873 | O=C(NC1CN(S(=O)(=O)O)C1=O)C(c1cccs1)N1C(=O)c2ccccc2C1=O (stereo not shown) [Compound 34, Sodium 3-(2-phthalimido-2-thienylacetamido)-2-oxoazetidine-1-sulfonate] | – |
| 6440 | Cc1onc(-c2c(Cl)cccc2Cl)c1C(=O)N[C@@H](C(=O)NC1CN(S(=O)(=O)O)C1=O)c1cccs1 (stereo partly drawn) [Compound 25, Sodium 3-[D-2-[[3-(2,6-dichlorophenyl)-5-methylisoxazol-4-yl]-carboxamido]-2-thienylacetamido]-2-oxoazetidine-1-suflonate] | IC50 [2]: 715 nM |
| 391 | COC1(NC(=O)C(C(=O)O)c2ccccc2)CN(S(=O)(=O)O)C1=O (stereo not shown) [Compound 5] | – |
| 523 | CCN1CCN(C(=O)NC(C(=O)NC2(OC)CN(S(=O)(=O)O)C2=O)c2ccccc2)C(=O)C1=O (stereo not shown) [Compound 11] | – |
| 89.2 | COC1(NC(=O)C(C(=O)OCc2ccccc2)c2ccccc2)CN(S(=O)(=O)O)C1=O (stereo not shown) [Compound 4] | – |
| 162 | Cc1onc(-c2c(Cl)cccc2Cl)c1C(=O)NC1CN(S(=O)(=O)O)C1=O (stereo not shown) [Compound 9] | MIC of Cefotiam with 1 μg/ml of Compound [3]: 3.13; MIC of Cefotiam with 1 μg/ml of Compound [4]: 100; MIC of Cefotiam with 1 μg/ml of Compound [5]: < 0.2; MIC of Cefotiam with 1 μg/ml of Compound [6]: 0.39; MIC of Cefotiam with 1 μg/ml of Compound [7]: 0.39 |
| 127 | COC1(NC(=O)[C@H](NC(=O)N2CCN(c3ccccc3)C(=O)C2=O)c2cccs2)CN(S(=O)(=O)O)C1=O (stereo partly drawn) [Compound 39, Sodium 3-methoxy-3-[D-2-(4-phenyl-2,3-dioxo-1-piperadinecarboxamido)-2-thienylacetamido]-2-oxoazetidine-1-sulfonate] | – |
| 1250 | Cc1ccc(SN=C(C(=O)NC2CN(S(=O)(=O)O)C2=O)c2ccccc2)cc1 (stereo not shown) | – |
| 15300 | CON=C(C(=O)NC1CN(S(=O)(=O)O)C1=O)c1ccccc1 (stereo not shown) [Compound 16] | – |

Second part, the compound before the results:

| SMILES | IC50 [1] [nM] | further results |
| --- | --- | --- |
| CON=C(C(=O)NC1(OC)CN(S(=O)(=O)O)C1=O)c1csc(N)n1 (stereo not shown) [Compound 13] | 712 | – |
| COC1(NC(=O)[C@H](NC(=O)N2CCN(CC=C(C)C)C(=O)C2=O)c2cccs2)CN(S(=O)(=O)O)C1=O (stereo partly drawn) [Compound 41, Sodium 3-[D-2-[4-(3-methyl-2-butenyl)-2,3-dioxo-1-piperadinecarboxamido]-2-thienylacetamido]-3-methoxy-2-oxoazetidine-1-sulfonate] | 120 | – |
| COC1(NC(=O)C(=NOC(C)C)c2csc(N)n2)CN(S(=O)(=O)O)C1=O (stereo not shown) [Compound 36, Sodium 3-[2-(2-aminothiazol-4-yl)-2-(1-methylethoxyimino)actamido]-3-methoxy-2-oxoazetidine-1-sulfonate] | 56.5 | – |
| O=C(CSc1c(Cl)cccc1Cl)N[C@@H](C(=O)NC1CN(S(=O)(=O)O)C1=O)c1ccccc1 (stereo partly shown) [Compound 46] | – | IC50 [2]: 9650 nM |
| CON=C(C(=O)NC1CN(S(=O)(=O)O)C1=O)c1nc(NC(=O)CCl)sc1Cl (stereo not shown) | 622 | – |
| COc1cccc(OC)c1C(=O)NC1(OC)CN(S(=O)(=O)O)C1=O (stereo not shown) [Compound 18] | 5000 | – |
| COC1(NC(=O)[C@H](NC(=O)N2CCN(CC(=O)N3CCCCC3)C(=O)C2=O)c2cccs2)CN(S(=O)(=O)O)C1=O (stereo partly drawn) [Compound 38, Sodium 3-methoxy-3-[D-2-(4-piperidinecarbonylmethyl-2,3-dioxo-1-piperadinecarboxamido)-2-thienylacetamido]-2-oxoazetidine-1-sulfonate] | 130 | – |
| CCCCCCCCN1CCN(C(=O)N[C@@H](C(=O)NC2CN(S(=O)(=O)O)C2=O)c2cccs2)C(=O)C1=O (stereo partly drawn) [Compound 1, Sodium 3-[D-2-(4-n-octyl-2,3-dioxo-1-piperazinecarboxamido)-2-thienylacetamido]-2-oxoazetidine-1-sulfoante] | 5020 | – |
| [N-]=[N+]=NC(C(=O)NC1CN(S(=O)(=O)O)C1=O)c1ccccc1 (stereo not shown) | – | IC50 [2]: 144 nM |
| CON=C(C(=O)NC1CN(S(=O)(=O)O)C1=O)c1csc(N)n1 (stereo not shown) [Compound 12] | 4010 | MIC of Cefotiam with 1 μg/ml of Compound [3]: 25; MIC of Cefotiam with 1 μg/ml of Compound [4]: 25; MIC of Cefotiam with 1 μg/ml of Compound [5]: 25; MIC of Cefotiam with 1 μg/ml of Compound [6]: < 0.2; MIC of Cefotiam with 1 μg/ml of Compound [7]: 0.2 |
| O=C(NC1CN(S(=O)(=O)O)C1=O)C(Br)c1ccccc1 (stereo not shown) | – | IC50 [2]: 493 nM |
| O=C(NC1CN(S(=O)(=O)O)C1=O)C(=O)c1ccccc1 (stereo not shown) | – | IC50 [2]: 12500 nM |
| COc1ccc(COC(=O)C(C(=O)NC2(OC)CN(S(=O)(=O)O)C2=O)c2ccc(O)cc2)cc1 (stereo not shown) | 387 | – |
| CCN1CCN(C(=O)NC(C(=O)NC2CN(S(=O)(=O)O)C2=O)C2=C(Cl)CCCC2)C(=O)C1=O (stereo not shown) | 5680 | – |
| COC1(NC(=O)[C@@H](C)NC(=O)OCc2ccccc2)CN(S(=O)(=O)O)C1=O (stereo partly shown) [Compound 8] | 7970 | – |
| CCCCCCCCN1CCN(C(=O)NC(C(=O)NC2(OC)CN(S(=O)(=O)O)C2=O)c2cccs2)C(=O)C1=O (stereo not shown) [Compound 2] | 78.3 | – |
| COC1(NC(=O)OCc2ccccc2)CN(S(=O)(=O)O)C1=O (stereo not shown) [Compound 30, Sodium 3-benzyloxycarboxamido-3-methoxy-2-oxoazetidine-1-sulfonate] | 15100 | – |
| CC(C)ON=C(C(=O)NC1CN(S(=O)(=O)O)C1=O)c1csc(N)n1 (stereo not shown) [Compound 23] | 53 | – |
| COC1(NC(=O)C(C)NC(=O)C(CS(=O)(=O)NS(=O)(=O)O)NC(=O)OCc2ccccc2)CN(S(=O)(=O)O)C1=O (stereo not shown) [Compound 24] | 1200 | – |

| SMILES | IC50 [1] [nM] | further results |
| --- | --- | --- |
| CCN1CCN(C(=O)N[C@H](Cc2ccccc2)C(=O)NC2(OC)CN(S(=O)(=O)O)C2=O)C(=O)C1=O (stereo partly shown) [Compound 7] | 2150 | – |
| CC(C)(ON=C(C(=O)NC1CN(S(=O)(=O)O)C1=O)c1csc(NC(c2ccccc2)(c2ccccc2)c2ccccc2)n1)C(=O)O (stereo not shown) [Compound 43, Disodium 3-[2-[(1-carboxy-1-methylethoxy)imino]-2-(2-tritylaminothiazol-4-yl)acetamido]-2-oxoazetidine-1-sulfonate] | 4820 | – |
| [N-]=[N+]=NC(C(=O)NC1CN(S(=O)(=O)O)C1=O)c1cccc(Cl)c1 (stereo not shown) | – | IC50 [2]: 147 nM |
| CS(=O)(=O)NC1CN(S(=O)(=O)O)C1=O (stereo not shown) [Compound 52] | – | IC50 [2]: 14300 nM |
| COC1(NC(=O)[C@H](NC(=O)N2CCN(C3CCCCC3)C(=O)C2=O)c2cccs2)CN(S(=O)(=O)O)C1=O (stereo partly drawn) [Compound 37, Sodium 3-[D-2-(4-cyclohexyl-2,3-dioxo-1-pipeadinecarboxamido)-2-thienylacetamido]-3-methoxy-2-oxoazetidine-1-sulfonate] | 215 | – |
| CCOC(=O)C(C(=O)c1ccccc1)=C1SC(C(=O)NC2CN(S(=O)(=O)O)C2=O)S1 (stereo not shown) [Compound 54] | – | IC50 [2]: 2540 nM |
| Nc1nc(CC(=O)N[C@@H](C(=O)NC2CN(S(=O)(=O)O)C2=O)c2ccccc2)cs1 (stereo partly shown) [Compound 47] | – | IC50 [2]: 11400 nM |
| COC1(NC(=O)C(N=[N+]=[N-])c2ccccc2)CN(S(=O)(=O)O)C1=O (stereo not shown) | 954 | – |
| COc1cccc(OC)c1C(=O)NC1CN(S(=O)(=O)O)C1=O (stereo not shown) | 7100 | – |
| CON=C(C(=O)NC1(OC)CN(S(=O)(=O)O)C1=O)c1csc(NC(=O)CCl)n1 (stereo not shown) [Compound 14] | 658 | – |
| O=C(NC(CS(=O)(=O)NC1CN(S(=O)(=O)O)C1=O)C(=O)OCc1ccccc1)OCc1ccccc1 (stereo not shown) [Compound 48] | – | IC50 [2]: 3140 nM |
| CC(C)ON=C(C(=O)NC1CN(S(=O)(=O)O)C1=O)c1csc(N)n1 (stereo not shown) | 50.1 | – |
| CCN1C(=O)C(=O)N(C(=O)N[C@@H](C(=O)NC2CN(S(=O)(=O)O)C2=O)c2cccs2)C[C@@H]1C (stereo partly drawn) [Compound 44, Sodium 3-[D-2-(4-ethyl-5(S)-methyl-2,3-dioxo-2,3-dioxo-1-piperazinecarboxamido)-2-thienylacetamido]-2-oxoazetidine-1-sulfonate] | – | IC50 [2]: 2460 nM |
| CCN1CCN(C(=O)NC(C(=O)NC2CN(S(=O)(=O)O)C2=O)C2=CCCCC2)C(=O)C1=O (stereo not shown) [Compound 10] | 4880 | – |
| CON=C(C(=O)NC1CN(S(=O)(=O)O)C1=O)c1nc(N)sc1Cl (stereo not shown) | 2960 | – |
| COC1(NC(=O)[C@H](NC(=O)N2CCN(C(C)(C)C)C(=O)C2=O)c2cccs2)CN(S(=O)(=O)O)C1=O (stereo partly drawn) [Compound 40, Sodium 3-[D-2-(4-t-butyl-2,3-dioxo-1-piperadinecarboxamido)-2-thienylacetamido]-3-methoxy-2-oxoazetidine-1-sulfonate] | 124 | – |
| CNC(=O)CC(NC(=O)OCc1ccccc1)C(=O)NC1(OC)CN(S(=O)(=O)O)C1=O (stereo not shown) [Compound 6] | 2400 | – |
| O=C(NC1CN(S(=O)(=O)O)C1=O)[C@H](NC(=O)N1CCNC1=O)c1cccs1 (stereo partly drawn) [Compound 45, Sodium 3-[D-2-[(2-oxoimidazolidin-1-yl)carboxamido]-2-thienylacetamido]-2-oxoazetidine-1-sulfonate] | – | IC50 [2]: 5750 nM |
